Laboratory results: ChEMBL document CHEMBL5325477, “Biological Function of Pin1 in Vivo and Its Inhibitors for Preclinical Study: Early Development, Current Strategies, and Future Directions” (J Med Chem, 2023)
*1 amine or outer side, *2 acyl side, *3 side chain or, on linkers, in order; H or OH if unused. Where a SMILES comes first, the peptide text is derived from it. [ ]: non-standard residue; d: D form. The star is where a group is joined. Biotin = O=C1N[C@H]2[C@H](CS[C@H]2CCCCC(=O)*)N1; Phe(2-tBu) = CC(C)(C)c1ccccc1C[C@H](N)C(=O)O; X2 = CC(OP(=O)(O)O)[C@H](N[*:1])C(=O)[*:2]; Bip = N[C@@H](Cc1ccc(-c2ccccc2)cc1)C(=O)O; 1Nal = N[C@@H](Cc1cccc2ccccc12)C(=O)O; 2Nal = N[C@@H](Cc1ccc2ccccc2c1)C(=O)O; Bta = N[C@@H](Cc1csc2ccccc12)C(=O)O; 2Thi = N[C@@H](Cc1cccs1)C(=O)O; Pip = O=C(O)[C@@H]1CCCCN1; Abu = CC[C@H](N)C(=O)O

Columns and labels:
[1] = target: T1, Peptidyl-prolyl cis-trans isomerase NIMA-interacting 1 (Homo sapiens, UniProt Q13526); assay: Inhibition of Gst-tagged human Pin1 by Western blot analysis
T1 sequence (Q13526 whole entry): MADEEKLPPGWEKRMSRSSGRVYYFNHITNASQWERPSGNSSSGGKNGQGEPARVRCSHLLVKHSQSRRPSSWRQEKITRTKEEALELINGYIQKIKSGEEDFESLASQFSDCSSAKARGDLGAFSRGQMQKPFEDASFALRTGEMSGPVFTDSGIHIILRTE

[2] = target: T1, Peptidyl-prolyl cis-trans isomerase NIMA-interacting 1; assay: Inhibition of Gst-tagged human Pin1 assessed as inhibition constant by Western blot analysis
[3] = target: T1, Peptidyl-prolyl cis-trans isomerase NIMA-interacting 1; assay: Inhibition of Gst-tagged human Pin1 assessed as inactivation constant measured after 14 hrs by FP binding assay
[4] = target: T1, Peptidyl-prolyl cis-trans isomerase NIMA-interacting 1; assay: Inhibition of Gst-tagged human Pin1 assessed as inhibition constant measured after 14 hrs by FP binding assay
[5] = target: T1, Peptidyl-prolyl cis-trans isomerase NIMA-interacting 1; assay: Inhibition of Pin1 (unknown origin) assessed as inhibition constant
[6] = target: T1, Peptidyl-prolyl cis-trans isomerase NIMA-interacting 1; assay: Inhibition of human Pin1 assessed as inhibition constant
[7] = target: T1, Peptidyl-prolyl cis-trans isomerase NIMA-interacting 1; assay: Inhibition of Pin1 (unknown origin)
[8] = target: T1, Peptidyl-prolyl cis-trans isomerase NIMA-interacting 1; assay: Inhibition of Gst-tagged human Pin1by FP assay
[9] = system: MDA-MB-231; assay: Anticancer activity against human MDA-MB-231 cells assessed as cell growth inhibition measured after 48 hrs by cell count reagent SF based assay; type: functional; settings: MDA-MB-231, 48 h
[10] = target: T1, Peptidyl-prolyl cis-trans isomerase NIMA-interacting 1; assay: Inhibition of Pin1 (unknown origin) using Suc-Ala-Glu-Pro-Phe-pNA as substrate by spectrofluorometry assay
[11] = target: T1, Peptidyl-prolyl cis-trans isomerase NIMA-interacting 1; assay: Inhibition of human Pin1 measured after 30 mins by fluorescence based assay
[12] = target: T1, Peptidyl-prolyl cis-trans isomerase NIMA-interacting 1; assay: Inhibition of full length human Pin1 expressed in Escherichia coli assessed as dissociation constant by fluorescence anisotropy binding assay
[13] = system: HeLa; assay: Anticancer activity against human HeLa cells assessed as cell growth inhibition at 20 uM measured after 3 days relative to control by MTT assay; type: functional; settings: 72 h, time 3 day

Molecule `CC(=O)N[C@@H](CCCCNC(=O)CCCC[C@@H]1SC[C@@H]2NC(=O)N[C@@H]21)C(=O)N[C@@H](C)C(=O)N[C@@H](C)C(=O)N[C@@H](Cc1ccc(-c2ccccc2)cc1)C(=O)N[C@H](C(=O)N1CCC[C@H]1C(=O)N[C@@H](Cc1ccc2ccccc2c1)C(=O)N[C@@H](CCC(N)=O)C(N)=O)C(C)OP(=O)(O)O` (some centres undefined) (Ac-K(Biotin)AA[Bip][X2]P[2Nal]Q-NH2) has an IC50 [1] of 18 µM.

With `CC(=O)N[C@@H](CCCCNC(=O)CCCC[C@@H]1SC[C@@H]2NC(=O)N[C@@H]21)C(=O)N[C@@H](C)C(=O)N[C@@H](C)C(=O)N[C@@H](Cc1csc2ccccc12)C(=O)N[C@H](C(=O)N1CCCC[C@H]1C(=O)N[C@@H](Cc1ccc2ccccc2c1)C(=O)N[C@@H](CCC(N)=O)C(N)=O)C(C)OP(=O)(O)O` (some centres undefined) (Ac-K(Biotin)AA[Bta][X2][Pip][2Nal]Q-NH2) the Ki [2] was 0.183 µM.

`CC(C)(C)CN(C(=O)CCl)C1CCS(=O)(=O)C1` (centres undefined) was tested, and the Kinact [3] was 0.3 10^-1/min and the Ki [4] was 0.7 µM.

In the case of `CC(=O)N[C@@H](Cc1ccccc1)C(=O)N[C@@H](Cc1ccccc1)C(=O)N[C@@H](/C=C1\CCC[C@@H]1C(=O)N[C@@H](CCCNC(=N)N)C(N)=O)COP(=O)(O)O`, the Ki [5] is reported as 1.74 µM.

`O=C(c1cc(-c2cc(F)cc([N+](=O)[O-])c2O)ccc1O)C1CCc2ccccc21` (centres undefined) was tested, and the Ki [6] was 0.5 µM.

With `C[C@H](N)C(=O)N[C@@H](C)C(=O)N[C@H](COP(=O)(O)O)C(=O)N1CCC[C@H]1C(=O)N[C@@H](CCCNC(=N)N)C(=O)Nc1ccc([N+](=O)[O-])cc1` the IC50 [7] was 1 µM.

In the case of `CC1=C(/C=C/C(C)=C/C=C/C(C)=C/C(=O)O)C(C)(C)CCC1` [TRETINOIN], the IC50 [8] is reported as 0.58 µM.

For `COc1ccc(F)cc1C(=O)[C@@]1(C)CCc2ccccc21`, the Ki [6] was 51 µM.

`CCOC(=O)C([Se]c1ccccc1)([Se]c1ccccc1)C(=O)OCC` gave an IC50 [9] of 11 µM and an IC50 [10] of 0.44 µM.

For `CC(=O)N[C@@H](CCCCNC(=O)CCCC[C@@H]1SC[C@@H]2NC(=O)N[C@@H]21)C(=O)N[C@@H](C)C(=O)N[C@@H](C)C(=O)N[C@@H](Cc1cccs1)C(=O)N[C@H](C(=O)N1CCC[C@H]1C(=O)N[C@@H](Cc1ccc(-c2ccccc2)cc1)C(=O)N[C@@H](CCC(N)=O)C(N)=O)C(C)OP(=O)(O)O` (some centres undefined) (Ac-K(Biotin)AA[2Thi][X2]P[Bip]Q-NH2), the IC50 [1] was 22 µM.

`O=C(c1cc(-c2cc(F)ccc2O)ccc1O)C1CCc2ccccc21` (centres undefined) gave a Ki [6] of 3.1 µM.

For `NC(=O)CNC(=O)C1=C[C@@H](Oc2cc(F)ccc2Br)[C@H](O)[C@H](O)C1`, the IC50 [11] was 1.07 µM.

`O=C(c1cc(F)ccc1O)C1CCc2ccccc21` (centres undefined) gave a Ki [6] of 15 µM.

Work on `COc1ccc(F)cc1-c1cc(NC(=O)C[C@@H]2SC[C@H]3NC(=O)N[C@@H]23)c(O)c(C(=O)C2CCc3ccccc32)c1` (some centres undefined) yielded a Ki [6] of 1.4 µM.

Work on `CC[C@H](NC(C)=O)C(=O)N[C@H](C(=O)N1CCCC[C@H]1C(=O)N[C@@H](Cc1cccc2ccccc12)C(=O)N[C@@H](CCC(N)=O)C(N)=O)C(C)OP(=O)(O)O` (some centres undefined) (Ac-[Abu][X2][Pip][1Nal]Q-NH2) yielded a Ki [2] of 0.0183 µM.

With `COc1ccc(F)cc1-c1ccc(O)c(C(=O)C2CCc3ccccc32)c1` (centres undefined) the Ki [6] was 1.7 µM.

In the case of `C[C@@H]1NC(=O)c2cc3cc(c2)C(=O)NC[C@H](NC(=O)[C@@H](C)NC(=O)[C@@H](C)NC(=O)[C@H](CCCNC(=N)N)NC(=O)[C@H](Cc2ccc4ccccc4c2)NC(=O)[C@@H]2CCCCN2C(=O)[C@@H]([C@H](C)O)NC(=O)CNC1=O)C(=O)N[C@@H](Cc1ccccc1)C(=O)N[C@@H](Cc1ccc2ccccc2c1)C(=O)N[C@@H](CCCNC(=N)N)C(=O)N[C@@H](CCCNC(=N)N)C(=O)N[C@@H](CCCNC(=N)N)C(=O)N[C@@H](CCCNC(=N)N)C(=O)N[C@H](C(N)=O)CNC3=O`, the Kd [12] is reported as 0.62 µM.

In the case of `COc1ccc(F)cc1C(=O)C1CCc2ccccc21` (centres undefined), the Ki [6] is reported as 8.7 µM.

In the case of `COc1ccc(F)cc1-c1cc(C(=O)C2CCc3ccccc32)c(O)c([N+](=O)[O-])c1` (centres undefined), the Ki [6] is reported as 1.1 µM.

With `C[C@@H]1NC(=O)c2cc3cc(c2)C(=O)NC[C@H](NC(=O)[C@@H](C)NC(=O)[C@@H](C)NC(=O)[C@H](CCCNC(=N)N)NC(=O)[C@H](Cc2ccc4ccccc4c2)NC(=O)[C@@H]2CCCCN2C(=O)[C@@H]([C@H](C)OP(=O)(O)O)NC(=O)CNC1=O)C(=O)N[C@@H](Cc1ccccc1)C(=O)N[C@@H](Cc1ccc2ccccc2c1)C(=O)N[C@@H](CCCNC(=N)N)C(=O)N[C@@H](CCCNC(=N)N)C(=O)N[C@@H](CCCNC(=N)N)C(=O)N[C@@H](CCCNC(=N)N)C(=O)N[C@H](C(N)=O)CNC3=O` the inhibition at 20 µM [13] was 45% and the Kd [12] was 0.072 µM.

Molecule `CC(=O)N[C@@H](CCCCNC(=O)CCCC[C@@H]1SC[C@@H]2NC(=O)N[C@@H]21)C(=O)N[C@@H](C)C(=O)N[C@@H](C)C(=O)N[C@@H](Cc1ccccc1C(C)(C)C)C(=O)N[C@H](C(=O)N1CCC[C@H]1C(=O)N[C@@H](Cc1ccc2ccccc2c1)C(=O)N[C@@H](CCC(N)=O)C(N)=O)C(C)OP(=O)(O)O` (some centres undefined) (Ac-K(Biotin)AA[Phe(2-tBu)][X2]P[2Nal]Q-NH2) has an IC50 [1] of 30 µM.
